The source of these data is BindingDB's records for doi:10.1016/0960-894X(95)00340-Y (1995).

pKi: −log10 of the molar value. Where a name gives a salt, the structure may show the parent alone.

In the assay the target is Leukotriene B4 receptor 1 (Cavia porcellus). Briefly: Binding affinity against Guinea pig membrane LTB4 Receptor.

Consider `CCCc1cc(CC)c(OCCCCCC(C)(C)c2nn[nH]n2)cc1O` [Sodium salt of 4-Ethyl-5-[6-methyl-6-(2H-tetrazol-5-yl)-heptyloxy]-2-propyl-phenol], for which the pKi (in general, −log10 of the Ki, conventionally taken in molar units) was 7.85.
`CCc1cc(CC)c(OCCCCCC(C)(C)c2nn[nH]n2)cc1O` [sodium 2,4-diethyl-5-[6-methyl-6-(2H-1,2,3,4-tetraazol-5-yl)heptyloxy]phenol] had a pKi of 7.77.
Consider `CCCCCCc1cc(CC)c(OCCCCCC(C)(C)c2nn[nH]n2)cc1O` [sodium 4-ethyl-2-hexyl-5-[6-methyl-6-(2H-1,2,3,4-tetraazol-5-yl)heptyloxy]phenol], for which the pKi was 7.48.
